25 molecules from US20240336629A1, “Tricyclic Derivatives Useful As PARP7 Inhibitors” (JACOBIO PHARMACEUTICALS CO., LTD., priority 2021, published 2024) can be followed below.

Like-named read-outs stand apart in the source and are kept apart here.

One data set deals with PARP7 enzyme (Homo sapiens (Human), UniProt Q7Z3E1). Nature of the data set: PARP7 enzymatic experiment (HTRF assay). Conditions: 4PL fit. It counts as biochemical.
In data set [1] the test system is lung cancer cell line H1373 (high expression of PARP7). Description: Lung cancer cell proliferation inhibition experiment (CTG method). It counts as cell-based. Conditions: H1373 cells, 144 hrs incubation, Cell Titer Glo.
The nature of data set [2]: Mouse pharmacokinetic study. It counts as in vivo. As to conditions: Balb/c mouse; for clearance / Vd: iv; for Vd: read-out: Vss; for bioavailability: read-out: Oral BA (F %).
[3] abbreviates: plasma, po, 100 mg/kg p.o. vs 3 mg/kg i.v.
Where [4] appears, read: plasma, po, single 100 mg/kg, p.o., read-out: Cmax.
The mark [5] stands for this setting: plasma, oral, 100 mg/kg p.o. vs 3 mg/kg i.v.

PARP7 enzyme, sequence (Q7Z3E1 456-657): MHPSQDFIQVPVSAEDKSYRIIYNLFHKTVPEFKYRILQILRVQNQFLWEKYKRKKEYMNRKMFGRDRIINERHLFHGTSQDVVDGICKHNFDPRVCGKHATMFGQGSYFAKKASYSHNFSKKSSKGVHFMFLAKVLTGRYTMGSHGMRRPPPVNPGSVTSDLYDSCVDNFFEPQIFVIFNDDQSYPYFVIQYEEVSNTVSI

On to `C[C@@H](COCCC(=O)N1CCN2c3ncc(Cl)cc3N(C)C(=O)[C@@H]2C1)Nc1cn[nH]c(=O)c1C(F)(F)F` (single isomer, unassigned) [Compound 20A], for which the IC50 on PARP7 enzyme stood at 0.00151 µM; in data set [1] (Homo sapiens, NCI-H1373, 144 h), 0.0539 µM. The “pharmacokinetic properties (in words)” value in data set [2] is listed as “good pharmacokinetic properties”.

As for `CC(C)N1C(=O)[C@@H]2CN(C(=O)CCOC[C@H](C)Nc3cn[nH]c(=O)c3C(F)(F)F)CCN2c2ncc(C(F)(F)F)cc21` (single isomer, unassigned) [Compound 24A], it took 0.00207 µM to reach half-maximal inhibition against PARP7 enzyme (IC50). Also, in data set [2], the “pharmacokinetic properties (in words)” value is on record as “good pharmacokinetic properties”.

`C[C@@H](COCCC(=O)N1CCN2c3ncc(C(F)(F)F)cc3SCC[C@@H]2C1)Nc1cn[nH]c(=O)c1C(F)(F)F` (single isomer, unassigned) [Compound 71A]: the IC50 against PARP7 enzyme stood at 0.00153 µM; in data set [1], 0.0139 µM. Besides, the “pharmacokinetic properties (in words)” value in data set [2] was “good pharmacokinetic properties”.

For `CCN1c2ncc(Cl)cc2OCC[C@@H]1CNC(=O)CCOC[C@@H](C)Oc1cn[nH]c(=O)c1C(F)(F)F` (single isomer, unassigned) [Compound 84A], it took 0.00101 µM to reach half-maximal inhibition on PARP7 enzyme (IC50). In data set [1], the IC50 came to 0.0215 µM. The “Oral BA (F %)” value in data set [2] (100 mg/kg p.o. vs 3 mg/kg i.v.) is on record as 106%. In data set [2] (single 3 mg/kg, i.v.), this molecule returned a CL of 41 mL/min/kg and a Vss of 0.5 L/kg. Also, in data set [2] (single 100 mg/kg, p.o.), the AUClast turned out to be 43382 ng·h/mL and the Cmax worked out at 15033 ng/mL.

`Cc1c(Cl)cnc2c1OCC[C@@H]1CN(C(=O)CCOC[C@H](C)Oc3cn[nH]c(=O)c3C(F)(F)F)CCN21` (single isomer, unassigned) [Compound 85A] came in with an IC50 in data set [1] (Homo sapiens, NCI-H1373, 144 h) of 0.0207 µM. The same molecule came in with a clearance in data set [2] (plasma, single 3 mg/kg) of 60 mL/min/kg. For the same molecule, in data set [2] (plasma, single 3 mg/kg, i.v.), the Vd stood at 0.5 L/kg. For the same molecule, the bioavailability in data set [2] (setting [3]) stood at 301%. In data set [2] (plasma, po, single 100 mg/kg), this molecule had an AUC(0-t) of 86100 ng·h/mL. In addition, the Cmax in data set [2] (setting [4]) was found to be 24200 ng/mL.

`C[C@@H](COCCC(=O)N1CCN2c3nc(F)c(Cl)cc3N(C)C(=O)[C@@H]2C1)Nc1cn[nH]c(=O)c1C(F)(F)F` [Compound 14A]: on PARP7 enzyme, the IC50 was 0.0106 µM. In addition, the “pharmacokinetic properties (in words)” value in data set [2] is recorded as “good pharmacokinetic properties”.

In data set [1] (Homo sapiens, NCI-H1373, 144 h), `Cc1c2n(c3ncc(C(F)(F)F)cc13)CCN(C(=O)CCOC[C@H](C)Oc1cn[nH]c(=O)c1C(F)(F)F)C2` [Compound 45] returned an IC50 of 0.013 µM. In data set [2], the “pharmacokinetic properties (in words)” value is “good pharmacokinetic properties”.

In the case of `C[C@@H](COCCC(=O)N1CCn2c(cc3cc(C(F)(F)F)cnc32)C1)Oc1cn[nH]c(=O)c1C(F)(F)F` [Compound 47A], in data set [1] (Homo sapiens, NCI-H1373, 144 h), inhibition was half-maximal at 0.0609 µM (IC50). This molecule also displayed a clearance in data set [2] (plasma, single 3 mg/kg) of 16 mL/min/kg. The Vd in data set [2] (plasma, single 3 mg/kg, i.v.) was determined as 0.5 L/kg. The bioavailability in data set [2] (setting [5]) is 90%. Besides, the exposure AUC(0-t) in data set [2] (plasma, po, single 100 mg/kg) worked out at 95200 ng·h/mL. Also, the maximum concentration (Cmax) in data set [2] (setting [4]) worked out at 41100 ng/mL.

In turn, `C[C@@H](COCCC(=O)N1CCN2c3ncc(C(F)(F)F)cc3OC[C@@H]2C1)Oc1cn[nH]c(=O)c1C(F)(F)F` [Compound 51] had an IC50 in data set [1] (Homo sapiens, NCI-H1373) of 0.0346 µM. In addition, the clearance in data set [2] (plasma, single 3 mg/kg) stood at 22 mL/min/kg. Further, the Vd in data set [2] (plasma, single 3 mg/kg, i.v.) came out at 0.5 L/kg. In data set [2] (setting [5]), the bioavailability came to 121%. This molecule also gave an AUC(0-t) in data set [2] (plasma, po, single 100 mg/kg) of 91400 ng·h/mL. For the same molecule, the Cmax in data set [2] (setting [4]) was determined as 38200 ng/mL.

For `C[C@@H](COCCC(=O)N1CCN2c3ncc(C(F)(F)F)cc3[C@](C)(O)[C@H]2C1)Nc1cn[nH]c(=O)c1C(F)(F)F` [Compound 79D], the concentration for half-maximal inhibition (IC50) against PARP7 enzyme turned out to be 0.00318 µM; in data set [1] (Homo sapiens, NCI-H1373, 144 h), 0.742 µM.

On to `C[C@@H](COCCC(=O)N1CCN2c3ncc(C(F)(F)F)cc3C(O)CC2C1)Nc1cn[nH]c(=O)c1C(F)(F)F` (stereo partly shown) [Compound 80], for which the IC50 worked out at 0.000946 µM against PARP7 enzyme and 0.151 µM in data set [1].

For the molecule `C[C@H](COCCC(=O)N1CCN2c3ncc(Cl)cc3N(C)C(=O)[C@@H]2C1)Nc1cn[nH]c(=O)c1C(F)(F)F` [Compound 82A], the IC50 at PARP7 enzyme is 0.000744 µM; in data set [1] (Homo sapiens, NCI-H1373, 144 h), 0.0475 µM. The molecule further showed a clearance in data set [2] (plasma, single 3 mg/kg) of 32 mL/min/kg. Further, the Vd in data set [2] (plasma, single 3 mg/kg, i.v.) was determined as 0.4 L/kg. Also, the bioavailability in data set [2] (setting [3]) was found to be 48%. In data set [2] (plasma, po, single 100 mg/kg), this molecule displayed an AUC(0-t) of 26400 ng·h/mL. For the same molecule, in data set [2] (setting [4]), the peak concentration (Cmax) stood at 21700 ng/mL.

For the molecule `C[C@H](COCCC(=O)N1CCN2c3ncc(Cl)cc3N(C)C(=O)[C@H]2C1)Nc1cn[nH]c(=O)c1C(F)(F)F` [Compound 82B], the IC50 against PARP7 enzyme turned out to be 0.000892 µM; in data set [1] (Homo sapiens, NCI-H1373, 144 h) it was 0.0216 µM.

Turning to `Cc1c(Cl)cnc2c1OCC[C@H]1CN(C(=O)CCOC[C@H](C)Oc3cn[nH]c(=O)c3C(F)(F)F)CCN21` [Compound 85B], the 50% inhibitory concentration (IC50) worked out at 0.00784 µM against PARP7 enzyme and 0.311 µM in data set [1] (Homo sapiens, NCI-H1373, 144 h).

For `C[C@@H](COCCC(=O)N1CCN2c3ncc(C(F)(F)F)cc3SCC[C@@H]2C1)Oc1cn[nH]c(=O)c1C(F)(F)F` [Compound 86A], the concentration for half-maximal inhibition (IC50) at PARP7 enzyme stood at 0.0025 µM; in data set [1] (Homo sapiens, NCI-H1373, 144 h), 0.0119 µM. In data set [2] (plasma, single 3 mg/kg), this molecule had a clearance of 54 mL/min/kg. Further, the Vd in data set [2] (plasma, single 3 mg/kg, i.v.) stood at 1.4 L/kg. Moreover, the bioavailability in data set [2] (setting [3]) is 66%. In addition, in data set [2] (plasma, po, single 100 mg/kg), the exposure AUC(0-t) came out at 20300 ng·h/mL. In addition, the maximum concentration (Cmax) in data set [2] (setting [4]) came to 7860 ng/mL.

Regarding `C[C@@H](COCCC(=O)N1CCN2c3ncc(C(F)(F)F)cc3SCC[C@H]2C1)Oc1cn[nH]c(=O)c1C(F)(F)F` [Compound 86B], the half-maximal inhibitory concentration (IC50) is 0.0205 µM against PARP7 enzyme and 0.246 µM in data set [1] (Homo sapiens, NCI-H1373, 144 h).

As for `CN1C(=O)[C@@H]2CN(C(=O)CCOC[C@@H]3CCN3c3cn[nH]c(=O)c3C(F)(F)F)CCN2c2ncc(Cl)cc21` [Compound 88A], the 50% inhibitory concentration (IC50) against PARP7 enzyme came out at 0.000416 µM; in data set [1] (Homo sapiens, NCI-H1373, 144 h) it was 0.00217 µM.

As to `CN1C(=O)[C@H]2CN(C(=O)CCOC[C@@H]3CCN3c3cn[nH]c(=O)c3C(F)(F)F)CCN2c2ncc(Cl)cc21` [Compound 88B], the half-maximal inhibitory concentration (IC50) against PARP7 enzyme amounted to 0.000446 µM; in data set [1] (Homo sapiens, NCI-H1373, 144 h), 0.00294 µM.

Regarding `O=C(CCOC[C@@H]1CCN1c1cn[nH]c(=O)c1C(F)(F)F)N1CCN2c3ncc(C(F)(F)F)cc3OC[C@@H]2C1` [Compound 89A], the half-inhibitory concentration (IC50) worked out at 0.000696 µM at PARP7 enzyme and 0.0106 µM in data set [1] (Homo sapiens, NCI-H1373, 144 h).

For `O=C(CCOC[C@@H]1CCN1c1cn[nH]c(=O)c1C(F)(F)F)N1CCN2c3ncc(C(F)(F)F)cc3OC[C@H]2C1` [Compound 89B], the 50% inhibitory concentration (IC50) came out at 0.000658 µM on PARP7 enzyme and 0.00692 µM in data set [1] (Homo sapiens, NCI-H1373, 144 h).

In the case of `O=C(CCOC[C@@H]1CCN1c1cn[nH]c(=O)c1C(F)(F)F)N1CCn2c(cc3cc(C(F)(F)F)cnc32)C1` [Compound 91], the IC50 stood at 0.000496 µM against PARP7 enzyme and 0.0113 µM in data set [1] (Homo sapiens, NCI-H1373, 144 h).

As to `Cc1c2n(c3ncc(C(F)(F)F)cc13)CCN(C(=O)CCOC[C@@H]1CCN1c1cn[nH]c(=O)c1C(F)(F)F)C2` [Compound 92], the IC50 against PARP7 enzyme was 0.000686 µM; in data set [1] (Homo sapiens, NCI-H1373, 144 h) it was 0.00802 µM.

As for `O=C(CCOC[C@@H]1CCN1c1cn[nH]c(=O)c1C(F)(F)F)N1CCN2c3ncc(C(F)(F)F)cc3C(F)(F)C[C@@H]2C1` [Compound 93A], the IC50 was 0.00282 µM on PARP7 enzyme and 0.0156 µM in data set [1] (Homo sapiens, NCI-H1373, 144 h).

`O=C(CCOC[C@@H]1CCN1c1cn[nH]c(=O)c1C(F)(F)F)N1CCN2c3ncc(C(F)(F)F)cc3C(F)(F)C[C@H]2C1` [Compound 93B]: the 50% inhibitory concentration (IC50) on PARP7 enzyme was determined as 0.00209 µM; in data set [1] (Homo sapiens, NCI-H1373, 144 h) it was 0.0104 µM.

On to `CC(OCCC(=O)N1CCN2c3ncc(C(F)(F)F)cc3N(C)C(=O)C2C1)[C@@H]1CCN1c1cn[nH]c(=O)c1C(F)(F)F` (stereo partly shown) [Compound 96], for which the half-maximal inhibitory concentration (IC50) against PARP7 enzyme amounted to 0.00327 µM; in data set [1], 0.0221 µM.
